# In patent US12146004B2, “Polymyxin compounds and uses thereof” (priority 2014, dated 2024):
# Numbered stars: 1 amine (or outer) side, 2 acyl side, 3 side chain; on linkers, the order of the positions; unused ones are H or OH. Bridge positions count the residues as written; N and C are the ends. Square brackets hold non-standard residues; d marks the D form. Peptide text beside a SMILES is read from it. * marks the point of attachment. ξ: configuration not given here. X17 = CCCCCCN([C@@H](CCN)C(=O)[*:2])[*:1]; X14 = CC(C)c1ccc(CO[C@@H](CCN)C(=O)*)cc1; dCha = N[C@H](CC1CCCCC1)C(=O)O; Thr(3ξ) = CC(O)[C@H](N)C(=O)O; Dab = NCC[C@H](N)C(=O)O; Dap = NC[C@H](N)C(=O)O
# What was measured:
# Assay type in all cases: cell-based
# Klebsiella pneumoniae = system: Klebsiella pneumoniae
# Protocol: (§1) To evaluate the potency and spectrum of the compounds, susceptibility testing was performed against up to nine strains of each of the Gram negative pathogens, Escherichia coli, Pseudomonas aeruginosa, Klebsiella pneumoniae and Acinetobacter baumannii.
# (§2) The values in Table 2 are MIC (μg/mL) against strains of E. coli, K. pneumoniae, P. aeruginosa and A. baumanii, including strains which show elevated MICs to Polymyxin.
# (§3) The values in Table 2A are MIC (μg/mL).
# (§4) The in vitro activity of compounds 26 and C7 (FADDI-02) against resistant bacterial strains was compared. The resistant strains included including Escherichia coli, Pseudomonas aeruginosa, Klebsiella pneumoniae and Acinetobacter baumannii strains. The data is provided in Table 2C, where the strains are identified. The values in Table 2 are MIC (μg/mL).
# Pseudomonas aeruginosa = system: Pseudomonas aeruginosa
# Protocol: as §1, §2, §3, §4
# Acinetobacter baumannii = system: Acinetobacter baumannii
# Protocol: as §1, §2, §3, §4
# Escherichia coli = system: Escherichia coli
# Protocol: as §1, §2, §3, §4
SMILES,MIC K. pneumoniae 065 (Klebsiella pneumoniae) [µg/mL],MIC K. pneumoniae ATCC 13882 (Klebsiella pneumoniae) [µg/mL],MIC P. aeruginosa ATCC 27853 (Pseudomonas aeruginosa) [µg/mL],MIC P. aeruginosa CCUG 59347 (Pseudomonas aeruginosa) [µg/mL],MIC A. baumanii ATCC BAA-747 (Acinetobacter baumannii) [µg/mL],MIC A. baumanii NCTC 13424 (Acinetobacter baumannii) [µg/mL],MIC E. coli 058 (Escherichia coli) [µg/mL],MIC E. coli ATCC 25922 (Escherichia coli) [µg/mL],MIC K. pneumoniae 063 (Klebsiella pneumoniae) [µg/mL],MIC P. aeruginosa 068 (Pseudomonas aeruginosa) [µg/mL],MIC P. aeruginosa 070 (Pseudomonas aeruginosa) [µg/mL],MIC A. baumanii 053 (Acinetobacter baumannii) [µg/mL],MIC A. baumanii 056 (Acinetobacter baumannii) [µg/mL],MIC E. coli 061 (Escherichia coli) [µg/mL],also measured
"CC(C)C[C@@H]1NC(=O)[C@@H](CC2CCCCC2)NC(=O)[C@H](CCN)NC(=O)[C@@H](NC(=O)[C@H](CCN)NC(=O)[C@@H](NC(=O)C(CCN)Cc2ccccc2)C(C)O)CCNC(=O)[C@H]([C@@H](C)O)NC(=O)[C@H](CCN)NC(=O)[C@H](CCN)NC1=O (single isomer, unassigned; isomer 2) [Example 36, 4-amino-2-benzylbutanoyl-polymyxin [D-cyclohexylalanine]-6 nonapeptide. isomer 2]",2,0.125,0.5,0.5,1,2,8,0.125,–,–,–,–,–,–,–
"CC(C)CC(CN)C(=O)N[C@H](C(=O)N[C@@H](CN)C(=O)N[C@H]1CCNC(=O)[C@H]([C@@H](C)O)NC(=O)[C@H](CCN)NC(=O)[C@H](CCN)NC(=O)[C@H](CC(C)C)NC(=O)[C@@H](Cc2ccc(Br)cc2)NC(=O)[C@H](CCN)NC1=O)C(C)O (single isomer, unassigned; isomer 1) [Example 13, 2-aminomethyl-4-methyl pentanoyl polymyxin L-Thr-L-Dap-polymyxin [D-(4-bromo Phe)]-6]heptapeptide. Isomer 1]",>64,–,0.5,–,>8,–,32,1,>64,32,64,>64,>64,>64,MIC K. pneumoniae 062 (Klebsiella pneumoniae): >64 µg/mL; MIC K. pneumoniae 064 (Klebsiella pneumoniae): >64 µg/mL; MIC K. pneumoniae 066 (Klebsiella pneumoniae): >64 µg/mL; MIC K. pneumoniae 067 (Klebsiella pneumoniae): >64 µg/mL; MIC K. pneumoniae ATCC 4352 (Klebsiella pneumoniae): 0.5 µg/mL; MIC E. coli 059 (Escherichia coli): 32 µg/mL; MIC E. coli 060 (Escherichia coli): 32 µg/mL
"CCCCCCCCC1CNCC1C(=O)N[C@H](C(=O)N[C@@H](CCN)C(=O)N[C@H]1CCNC(=O)[C@H]([C@@H](C)O)NC(=O)[C@H](CCN)NC(=O)[C@H](CCN)NC(=O)[C@H](CC(C)C)NC(=O)[C@@H](Cc2ccccc2-c2ccccc2)NC(=O)[C@H](CCN)NC1=O)C(C)O (single isomer, unassigned; isomer 1) [Example 9, trans-4-octylpyrrolidine-3-carbonyl polymyxin [D-(2-phenyl)Phe]-6] nonapeptide. Isomer 1]",8,–,1,–,1,–,2,1,>64,2,2,64,32,8,MIC K. pneumoniae 062 (Klebsiella pneumoniae): 64 µg/mL; MIC K. pneumoniae 064 (Klebsiella pneumoniae): 64 µg/mL; MIC K. pneumoniae 066 (Klebsiella pneumoniae): 32 µg/mL; MIC K. pneumoniae 067 (Klebsiella pneumoniae): >64 µg/mL; MIC K. pneumoniae ATCC 4352 (Klebsiella pneumoniae): 0.5 µg/mL; MIC E. coli 059 (Escherichia coli): 2 µg/mL; MIC E. coli 060 (Escherichia coli): 4 µg/mL
"CCCCCCN[C@@H](CCN)C(=O)N[C@H](C(=O)N[C@@H](CN)C(=O)N[C@H]1CCNC(=O)[C@H]([C@@H](C)O)NC(=O)[C@H](CCN)NC(=O)[C@H](CCN)NC(=O)[C@H](CC(C)C)NC(=O)[C@@H](CC2CCCCC2)NC(=O)[C@H](CCN)NC1=O)C(C)O (stereo partly drawn) [Example 49, (S)-4-amino-2-(hexylamino) butanoyl L-Thr-L-Dap-polymyxin [D-cyclohexylalanine]-6 heptapeptide.] (H-[X17][Thr(3ξ)][Dap][Dab][Dab][dCha]L[Dab][Dab]T; lactam 4-C)",2,0.5,0.25,0.25,0.5,0.25,2,0.5,32,2,2,64,64,16,MIC E. coli NCTC 9001 (Escherichia coli): 0.125 µg/mL
"CC(C)C[C@@H]1NC(=O)[C@@H](CC2CCCCC2)NC(=O)[C@H](CCN)NC(=O)[C@@H](NC(=O)[C@H](CN)NC(=O)[C@@H](NC(=O)[C@H](CCN)OCc2ccc(C(C)C)cc2)[C@@H](C)O)CCNC(=O)[C@H]([C@@H](C)O)NC(=O)[C@H](CCN)NC(=O)[C@H](CCN)NC1=O [Example 88, (S)-4-amino-2-((4-isopropylbenzyl)oxy)butanoyl L-Thr-L-Dap-polymyxin [D-cyclohexylalanine-6]heptapeptide] (X14-T[Dap][Dab][Dab][dCha]L[Dab][Dab]T; lactam 3-C)",0.5,0.25,0.25,0.5,0.25,0.125,2,0.25,64,4,4,64,32,16,MIC E. coli NCTC 9001 (Escherichia coli): 0.25 µg/mL
"CC(C)C[C@@H]1NC(=O)[C@@H](CC2CCCCC2)NC(=O)[C@H](CCN)NC(=O)[C@@H](NC(=O)[C@H](CN)NC(=O)[C@@H](NC(=O)CCC(N)c2ccccc2)[C@@H](C)O)CCNC(=O)[C@H]([C@@H](C)O)NC(=O)[C@H](CCN)NC(=O)[C@H](CCN)NC1=O (single isomer, unassigned; isomer 1) [Example 60, 4-amino-4-phenylbutanoyl L-Thr-L-Dap-polymyxin [D-cyclohexylalanine]-6 heptapeptide. Isomer 1]",–,0.5,–,1,0.5,1,16,0.5,–,–,–,–,–,–,–
"CC(C)C[C@@H]1NC(=O)[C@@H](CC2CCCCC2)NC(=O)[C@H](CCN)NC(=O)[C@@H](NC(=O)[C@H](CN)NC(=O)[C@@H](NC(=O)C(CCN)Cc2ccccc2F)[C@@H](C)O)CCNC(=O)[C@H]([C@@H](C)O)NC(=O)[C@H](CCN)NC(=O)[C@H](CCN)NC1=O (single isomer, unassigned; isomer 2) [Example 65, 4-amino-2-(2-fluorobenzyl) butanoyl L-Thr-L-Dap-polymyxin [D-cyclohexylalanine]-6 heptapeptide. Isomer 2]",2,0.25,0.5,0.5,0.25,1,4,0.25,16,2,2,>64,>64,16,–
